Measured values taken from PMC4111866, “Enhancement in corneal permeability of riboflavin using calcium sequestering compounds” (International Journal of Pharmaceutics, 2014).
“Also recorded” adds a separate entry of the source.

Assays:
bovine cornea [1] = experiment: Whole eye experiment: Ca^2+ extraction from cornea, analysed by atomic absorption spectrometry; conditions: chelator 1 mg mL^−1 in PBS pH 7.4 ± 0.2, 3 h exposure of whole bovine eye cornea, 34 °C, n = 3; PBS alone 54.67 ± 7.04 ppm
Method: Calcium ion analysis was conducted using a novAA 350 system with […] software, version 4.5.0 (Analytik JENA, Germany). […] Quantitation achieved by reference to a calibration curve produced from Ca^2+ standards in ultrapure water incorporating 5% w/v lanthanum chloride as a releasing agent.

bovine cornea [2] = experiment: Transepithelial electrical resistance (TEER) of cornea in Ussing chambers; conditions: chelator 1 mg mL^−1 in PBS in donor chamber, 120 min, 34 °C, baseline deducted; initial 2.28 ± 0.06, PBS control 1.93 ± 0.04
bovine cornea epithelium = experiment: Corneal integrity: fluorescence microscopy of DAPI-stained cornea sections after exposure; conditions: chelator 1 mg mL^−1 in PBS pH 7.4 ± 0.2, 3 h exposure; PBS shows no disruption
Method: A Franz diffusion cell donor chamber was placed on the cornea as a means to contain the dose; the setup was wrapped in cling-film ensuring a good seal between the donor chamber and the cornea; these were placed in a water bath at 34 ± 1 °C. Individual eyes were exposed to PBS or solutions of EDTA, EGTA or EDDS at 1 mg mL^−1 in PBS, all at pH 7.4 ± 0.2 by placing 1 mL solution onto the cornea.
From the above experiment, corneas were dissected after exposure, and sections were prepared for microscopy by setting cornea segments in OCT, quick freezing on dry ice and subsequent sectioning. […] Specimens were stained using Vectashield with DAPI mounting medium, and a glass coverslip applied. All cornea sections were examined within seven days of preparation using an AXIOCAM MRm 1.3 MP digital camera attached to a Zeiss AXIO Imager A1 fluorescent microscope, using AXIO Vs 40 V.4.8.2.0 software (Zeiss, Oberkochen, Germany). A 10× magnification eyepiece together with a 5× magnification objective lens was employed, and DAPI fluorescence filter was selected.

[3] = Corneal permeability of riboflavin in Franz diffusion cells; assay type: in vitro ADME, bovine; parameters: Steady-state flux of riboflavin / Papp at 240 min: dose or concentration left out as unconfirmed; conditions: bovine, pH 7.4
Method: (§1) Analysis was conducted using a PerkinElmer series 200 HPLC system comprising of 785 A UV-vis detector, series 200 quaternary pump and series 200 autosampler (PerkinElmer Inc., UK), Hamilton PRP-1 reversed phase column, 150 mm × 4.1 mm, 10 μm (part number: 79425) and data acquisition software ([…], version 4.09, SRI Inc., USA). […] Bovine corneas were mounted in Franz diffusion cells (FDC), epithelium side facing the donor compartment. The receiver compartment was filled with pre-warmed and degassed PBS (16.5 mL). […] Riboflavin is known to be photodegradable ([Terekhova et al., 2011]), therefore the whole experiment was shielded with aluminium foil. Sink conditions were employed with 0.4 mL aliquots taken every 60 min for 240 min. HPLC analysis was carried out immediately after all samples had been collected to avoid drug degradation.

bovine cornea [4] = experiment: as above; assay type: in vitro ADME; parameters: Steady-state flux of riboflavin / Papp at 240 min: dose or concentration left out as unconfirmed
Method: as §1

bovine cornea [5] = experiment: Cornea extracts: riboflavin absorbed into cornea, ethanol extraction and HPLC; assay type: in vitro ADME; conditions: n = 3; for Riboflavin pg mg^−1 cornea: riboflavin in PBS pH 7.4 ± 0.2 without chelator
Method: Analysis was conducted using a PerkinElmer series 200 HPLC system comprising of 785 A UV–vis detector, series 200 quaternary pump and series 200 autosampler (PerkinElmer Inc., UK), Hamilton PRP-1 reversed phase column, 150 mm × 4.1 mm, 10 μm (part number: 79425) and data acquisition software (Peaksimple, version 4.09, SRI Inc., USA). […] Isocratic conditions were used at 25 °C with the mobile phase comprising of 20% ethanol and 80% ion-pair buffer, flow rate 0.8 mL min^−1, 10 μL injection volume, UV detector at 267 nm corresponding to riboflavin absorption λmax, a retention time of 3.05 min. Quantitation was achieved by reference to a calibration curve produced from riboflavin standards in PBS, pH 7.4 ± 0.2 at concentrations ranging from 0.01 to 25 μg mL^−1 (r^2 = 0.9996).
Corneas from the riboflavin permeability experiment were trimmed of sclera, gently blotted with tissue paper, weighed and placed in glass vials to which 5 mL absolute ethanol was added to extract absorbed riboflavin. Differences in its accumulation within the corneas between different solutions were compared. The vials were stored at room temperature shielded from light for three days. From these vials, 1 mL of extract solvent was centrifuged at 10,000 rpm for 10 min, and the supernatant transferred to autosample vials for HPLC analysis.

Compound: O=C(O)CC(NCCNC(CC(=O)O)C(=O)O)C(=O)O (stereo not drawn) [EDDS, ethylenediamine-N,N′-disuccinic acid]
- calcium sequestering performance from bovine cornea (Ca^2+ concentration in solution) (bovine cornea [1]): 87.60 ± 3.30 ppm
- TEER value after 2 h (bovine cornea [2]): 1.62 ± 0.04 kΩ cm^2
- histological changes of corneal epithelium (bovine cornea epithelium): some swelling with voids throughout this layer

Compound: O=C(O)CN(CCN(CC(=O)O)CC(=O)O)CC(=O)O [EDTA, Ethylenediaminetetraacetic acid]
- calcium sequestering performance from bovine cornea (Ca^2+ concentration in solution) (bovine cornea [1]): 98.97 ± 9.86 ppm
- TEER value after 2 h (bovine cornea [2]): 1.38 ± 0.03 kΩ cm^2
- histological changes of corneal epithelium (bovine cornea epithelium): some swelling with voids throughout this layer; also recorded: perforation seems to penetrate the whole of the epithelium

Compound: O=C(O)CN(CCOCCOCCN(CC(=O)O)CC(=O)O)CC(=O)O [EGTA, ethylene glycol-bis(2-aminoethylether)-N,N,N′,N′-tetraacetic acid]
- calcium sequestering performance from bovine cornea (Ca^2+ concentration in solution) (bovine cornea [1]): 119.57 ± 27.28 ppm
- TEER value after 2 h (bovine cornea [2]): 1.42 ± 0.02 kΩ cm^2
- histological changes of corneal epithelium (bovine cornea epithelium): intense disruption to the superficial epithelial layers and a relatively undisturbed basal layer

Compound: Cc1cc2nc3c(=O)[nH]c(=O)nc-3n(C[C@H](O)[C@H](O)[C@H](O)CO)c2cc1C [Riboflavin, riboflavin]
- Papp at 240 min [3]: 1940 ± 325 ×10⁻⁶ cm/s
- concentration of riboflavin in the receiving solution at 240 min (bovine cornea [4]; riboflavin 0.1 mg mL^−1 in PBS pH 7.4 without chelator, 34 °C): 5.74 ± 0.96 ng/mL
- Steady-state flux of riboflavin (bovine cornea [4]; riboflavin solution in PBS without chelator): 0.0478 ± 0.0080 µmol/min
- mean amount of riboflavin extracted from cornea (bovine cornea [5]; corneas after permeability experiment, riboflavin 0.1 mg mL^−1 in PBS without chelator): 50.41 ± 2.80 ng
- Riboflavin pg mg^−1 cornea (bovine cornea [5]): 62.46 ± 0.98 pg/mg
- Riboflavin pg mg^−1 cornea (bovine cornea [5]; listed as riboflavin): 62.46 pg/mg
